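Protocol summary: plate cells (96-well), add compound at 5 concentrations, incubate 48 h, interpolate endpoints linearly. GI50: concentration for 50% inhibition of growth. At the TGI there is no net growth.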
Experiments:
Test in all cases: DTP human tumour cell line panel, 48 h
MDA-N = test system: MDA-N
SW-620 colon = test system: SW-620 colon
HL-60(TB) leukemia = test system: HL-60(TB) leukemia
NCI-H23 lung = test system: NCI-H23 lung
A498 renal = test system: A498 renal
HCT-15 colon = test system: HCT-15 colon
SF-295 CNS = test system: SF-295 CNS
SK-MEL-28 melanoma = test system: SK-MEL-28 melanoma
RXF 393 renal = test system: RXF 393 renal
HOP-92 NSCLC = test system: HOP-92 NSCLC

Compound	TGI (MDA-N)	TGI (SW-620 colon)	TGI (HL-60(TB) leukemia)	TGI (NCI-H23 lung)	TGI (A498 renal)	TGI (HCT-15 colon)	TGI (SF-295 CNS)	TGI (SK-MEL-28 melanoma)	TGI (RXF 393 renal)	TGI (HOP-92 NSCLC)	GI50 (MDA-N)	GI50 (HL-60(TB) leukemia)	GI50 (NCI-H23 lung)	GI50 (A498 renal)	GI50 (HCT-15 colon)	GI50 (SF-295 CNS)
Oc1cccc2ccc(Br)nc12	> 100 µM	> 100 µM	> 100 µM	> 100 µM	> 100 µM	> 100 µM	> 100 µM	> 100 µM	> 100 µM	> 100 µM	–	–	–	–	–	–
COc1ccc2[nH]c3c(O)c(-c4c(C)cc5c([nH]c6ccc(OC)cc65)c4O)c(C)cc3c2c1	8.22 µM	10.3 µM	4.96 µM	8.38 µM	8.35 µM	8.2 µM	8.86 µM	9.64 µM	8.82 µM	8.18 µM	4.5 µM	0.0321 µM	4.48 µM	4.78 µM	4.2 µM	5.11 µM
C1=Cc2cccc3occ(c23)C=C1	> 100 µM	> 100 µM	48.2 µM	> 100 µM	> 100 µM	> 100 µM	> 100 µM	> 100 µM	88.3 µM	> 100 µM	–	–	–	–	–	–
O=c1[nH]c(=O)n(C2CC(O)C(COP(=O)(OCC(Cl)(Cl)Cl)OCC(Cl)(Cl)Cl)O2)cc1F (stereo unspecified)	> 100 µM	> 100 µM	51 µM	> 100 µM	–	> 100 µM	> 100 µM	> 100 µM	–	> 100 µM	–	–	–	–	–	–
CC(=O)OC(C)c1cc2c(s1)C(=O)c1ccsc1C2=O (stereo unspecified)	0.0544 µM	0.835 µM	0.0364 µM	0.196 µM	3.32 µM	0.272 µM	0.233 µM	–	0.496 µM	1.74 µM	–	–	–	–	–	–
CCOC(=O)CCc1ccc(NC(=O)/C=C/c2ccc([N+](=O)[O-])o2)cc1	2.95 µM	2.31 µM	0.481 µM	3.33 µM	7.27 µM	4.05 µM	28.7 µM	3.39 µM	2.75 µM	50.7 µM	–	–	–	–	–	–
O=C(CCN1CCCC1)c1ccc(Oc2ccc(F)cc2)cc1	> 100 µM	> 100 µM	37.8 µM	> 100 µM	–	> 100 µM	> 100 µM	> 100 µM	74.4 µM	41.5 µM	–	–	–	–	–	–
Cc1ccc(CN2CCN(Cc3ccc(C)o3)C(C)C2)o1 (stereo unspecified)	> 100 µM	> 100 µM	> 100 µM	> 100 µM	> 100 µM	> 100 µM	> 100 µM	> 100 µM	> 100 µM	> 100 µM	–	–	–	–	–	–
COC(=O)C1=COC2OC3CC1C2C(C)O3 (stereo unspecified)	> 100 µM	> 100 µM	> 100 µM	> 100 µM	> 100 µM	> 100 µM	> 100 µM	> 100 µM	> 100 µM	> 100 µM	–	–	–	–	–	–
Cc1cc(S(=O)(=O)NC2=NCC(C)(C)CN2)c(S)cc1Cl	83.4 µM	36.8 µM	62.1 µM	–	> 100 µM	> 100 µM	–	> 100 µM	> 100 µM	–	–	–	–	–	–	–
COC1(OC)C2C=CC1C([C@](C)(N)CO)C2 (stereo partly specified)	> 100 µM	> 100 µM	> 100 µM	> 100 µM	> 100 µM	–	> 100 µM	> 100 µM	> 100 µM	> 100 µM	–	–	–	–	–	–
CC(C)(C)NC(=S)N/N=C/c1ccccn1	> 100 µM	> 100 µM	–	> 100 µM	> 79.1 µM	> 100 µM	> 100 µM	> 100 µM	> 100 µM	89.3 µM	–	–	–	–	–	–
Cc1cnc2[nH]c(-c3ccc(Cl)cc3)cc(=O)c2c1	3.61 µM	> 100 µM	> 23.3 µM	> 100 µM	> 100 µM	> 40.8 µM	23 µM	> 100 µM	–	> 100 µM	–	–	–	–	–	–
COc1cc(-c2ccccc2)cn2c1nc1ccccc12	37.3 µM	> 100 µM	53.2 µM	> 100 µM	–	43.2 µM	–	33.2 µM	34.6 µM	32 µM	–	–	–	–	–	–
CCN1C/C(=C\c2ccc(Cl)cc2)c2[nH]c(=O)c(C#N)c(-c3ccc(Cl)cc3)c2C1	> 100 µM	> 100 µM	> 100 µM	> 100 µM	> 100 µM	> 100 µM	–	> 100 µM	> 100 µM	> 100 µM	–	–	–	–	–	–
N#Cc1c(N)c2c(c(-c3ccccc3)c1-c1ccccc1)C(=O)N(O)C2=O	> 100 µM	> 100 µM	> 100 µM	–	> 100 µM	> 100 µM	> 100 µM	> 100 µM	44.3 µM	> 100 µM	–	–	–	–	–	–
COc1cccc(CCn2c(N)c(C#N)c3ccc([N+](=O)[O-])cc3c2=O)c1	> 100 µM	> 100 µM	> 46.4 µM	> 46.4 µM	> 100 µM	> 31.6 µM	> 31.6 µM	> 100 µM	–	> 31.6 µM	–	–	–	–	–	–

Reference: PubChem BioAssay (NCI)
